Source: the supplement of paper PMC10307832

How the values were obtained:
Assay in all cases: relative viability (nuclei count vs DMSO), 5 days (fraction); higher = more cells survive
[1] = compound: C1CC2=C(C1)C=C(C=C2)OC3=NC(=C4C(=N3)N(C=N4)CC5=CC=C(C=C5)C6=CC=CC=C6)N[C@@H](CC7=CC=CC=C7)CO [QS11] + Cc1cc(Nc2cc(N3CCN(C)CC3)nc(Sc3ccc(NC(=O)C4CC4)cc3)n2)n[nH]1 [Tozasertib] (partner 0.1 µM)
Outline: (§1)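 Each reported value is a median over duplicate plates. It expresses relative viability: treated-well nuclei count divided by vehicle-well nuclei count. Lung cancer cell lines in 1536-well plates were dosed by pin tool a day after seeding, alone with one drug or with a fixed anchor-drug dose plus five library-drug doses (not always all listed) in √10 steps, and nuclei were counted after 5 days.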

[2] = compound: CC1=C(C=C(C=C1)NC(=O)C2=CC(=CC=C2)C(C)(C)C#N)NC3=CC4=C(C=C3)N=CN(C4=O)C [AZ628] + CC(=O)Nc1cccc(-n2c(=O)n(C3CC3)c(=O)c3c(Nc4ccc(I)cc4F)n(C)c(=O)c(C)c32)c1 [Trametinib] (partner 0.02 µM)
Outline: as §1

[3] = compound: CC1=C(C=C(C=C1)NC(=O)C2=CC(=CC=C2)C(C)(C)C#N)NC3=CC4=C(C=C3)N=CN(C4=O)C [AZ628] + CCNC(=O)c1noc(-c2cc(C(C)C)c(O)cc2O)c1-c1ccc(CN2CCOCC2)cc1 [Luminespib] (partner 0.01 µM)
Outline: as §1

[4] = compound: CC1=C(C=C(C=C1)NC(=O)C2=CC(=CC=C2)C(C)(C)C#N)NC3=CC4=C(C=C3)N=CN(C4=O)C [AZ628] + N=C(N)NC(=N)NCCc1ccccc1 [Phenformin] (partner 250 µM)
Outline: as §1

LCLC-97TM1
relative viability ([1]; first compound 0.08 µM): 0.2 | relative viability ([1]; first compound 0.253 µM): 0.242 | relative viability ([1]; first compound 2.53 µM): 0.199 | relative viability ([1]; first compound 8 µM): 0.146 | relative viability ([2]; first compound 0.08 µM): 0.126 | relative viability ([2]; first compound 0.253 µM): 0.118 | relative viability ([2]; first compound 0.8 µM): 0.114 | relative viability ([2]; first compound 2.53 µM): 0.0994 | relative viability ([2]; first compound 8 µM): 0.116 | relative viability ([3]; first compound 0.08 µM): 0.804 | relative viability ([3]; first compound 0.253 µM): 0.659 | relative viability ([3]; first compound 0.8 µM): 0.642 | relative viability ([3]; first compound 2.53 µM): 0.464 | relative viability ([3]; first compound 8 µM): 0.287 | relative viability ([4]; first compound 0.08 µM): 0.55 | relative viability ([4]; first compound 0.253 µM): 0.459 | relative viability ([4]; first compound 0.8 µM): 0.421 | relative viability ([4]; first compound 2.53 µM): 0.457 | relative viability ([4]; first compound 8 µM): 0.308
